Experimental data taken from patent publication US10653141B2, “Compositions and methods for attracting mosquitoes and repelling sand flies” (priority 2014, dated 2020).

Assays:
[1] = tested on: mosquitoes; test: Laboratory and mesocosm trials of Vectrax bait blended with insecticide; type: in vivo
Excerpt: Vectrax Bait Stations. To apply Vectrax within bait stations, the formulation—again, previously shaken or stirred—is loaded into a reservoir that provides the target insects with easy access to the attractant material, similar to a hummingbird feeder. […] In order to maintain maximum A&K efficiency, the toxicant component should be blended into the Vectrax attractant formulation as close to the time of application as possible. The attractant or A&K formulation may be loaded into the bait station in amounts ranging from a few grams to several liters, depending on the desired field life. If desired, a sponge or other absorbent material may be applied with the formulation, to facilitate landing by the mosquitoes. As with Vectrax-baited traps, Vectrax bait stations may be deployed singly, as a means to divert or attract and kill mosquitoes in sensitive environments (i.e., rural residences, backyards, recreational activity sites), or as part of a mosquito management strategy, placed at whatever locations and whatever density is thought to be required.

[2] = tested on: Phlebotomus dubosqui; test: Dual-choice bioassay, treated vs control chamber; type: in vivo; conditions: 1,200 mg DEET
Excerpt: Through a series of dual-choice bioassays, a new combination of plant volatile semiochemicals was identified, which acts as a powerful repellent against two vector species of sand flies, Lutzomyia longipalpis and Phlebotomus dubosqui (vectors of leishmaniasis). […] Female sand flies repelled from host environments will be less likely to obtain a blood meal, reducing egg production, while aggregation by males, which typically occurs near hosts, will also be impeded by the presence of a repellent. Both of these interventions will lead to a decrease in reproductive success within the treated area, and over time, a reduction in sand fly population size.
Vectrax can also be deployed as a vehicle for the controlled release of repellent plant volatiles, to manage sand fly populations. […] This plant-based repellent formulation could reduce sand fly populations in a number of ways. Female sand flies repelled from host environments by Vectrax will be less likely to obtain a blood meal, reducing egg production, while lek formation by males, which typically occurs near hosts, will also be impeded by the presence of a repellent. Both of these interventions will lead to a decrease in reproductive success within the treated area, and over time, a reduction in sand fly population size.

SMILES | efficacy as insecticide blended into Vectrax attract and kill bait [1] | flies selecting the untreated over the treated chamber (repellency) [2] [%]
CNC(=O)c1cc(C#N)cc(C)c1NC(=O)c1cc(Br)nn1-c1ncccc1Cl [cyazypyr] | quite effective | 
CCN(CC)C(=O)c1cccc(C)c1 [DEET, N, N-diethyl-meta-toluamide] |  | 79
